In experiment [1] the test system is Aβ-GFP SH-SY5Y cells. The experiment can be described thus: ROS assay (CellROX Orange) in Aβ-GFP cells. The note with it: tested 1.2–5 μM. Format: cell-based, Human. The method, then:
On day 1, Aβ-GFP or ∆K280 tauRD-DsRed SH-SY5Y cells were seeded into 96-well plates (2.5 × 10^4/well) and treated with retinoic acid (10 μM; Sigma-Aldrich) to prompt neuronal differentiation. […] On day 8, cells were stained with Hoechst 33342 (0.1 μg/ml; Sigma-Aldrich) for 30 min, and cell images were automatically captured at excitation/emission wavelengths of 482/[…] (GFP fluorescence) or 543/593 nm (DsRed fluorescence) using a high content analysis (HCA) system (Micro Confocal High-Content Imaging System). Image Acquisition and Analysis Software (MetaXpress) (Molecular Devices, Sunnyvale, CA, USA) was used to analyse the images. CellROX Orange (5 μM; Molecular Probes, Eugene, OR, USA) (for Aβ-GFP cells) or dichloro-dihydro-fluorescein diacetate (DCFH-DA, 10 μM; Invitrogen) (for ∆K280 tauRD-DsRed cells) was added to the cells and incubated at 37°C for 30 min. The HCA system was used to measure intracellular ROS at 531/593 nm (CellROX Orange fluorescence) or 482/536 nm (DCFH-DA fluorescence) of excitation/emission wavelengths.

In experiment [2] the test system is Aβ-GFP SH-SY5Y cells. The experiment can be described thus: High content analysis of Aβ-GFP fluorescence. Format: cell-based, Human. The method, then: Human neuroblastoma SH-SY5Y-derived Aβ-GFP [23] and ∆K280 tauRD-DsRed cells were kept in DMEM/nutrient mixture F12 (DMEM/F12) containing 10% FBS, 5 μg/ml blasticidin, and 100 μg/ml hygromycin (InvivoGen, San Diego, CA, USA). Doxycycline (Sigma-Aldrich) was applied to induce the expression of Aβ-GFP (5 μg/ml doxycycline) or ∆K280 tauRD-DsRed (2 μg/ml doxycycline).
On day 1, Aβ-GFP or ∆K280 tauRD-DsRed SH-SY5Y cells were seeded into 96-well plates (2.5 × 10^4/well) and treated with retinoic acid (10 μM; Sigma-Aldrich) to prompt neuronal differentiation. […] Image Acquisition and Analysis Software (MetaXpress) (Molecular Devices, Sunnyvale, CA, USA) was used to analyse the images. CellROX Orange (5 μM; Molecular Probes, Eugene, OR, USA) (for Aβ-GFP cells) or dichloro-dihydro-fluorescein diacetate (DCFH-DA, 10 μM; Invitrogen) (for ∆K280 tauRD-DsRed cells) was added to the cells and incubated at 37°C for 30 min.

Experiment [3] relates to Acetylcholinesterase (AChE). Description: AChE activity in Aβ-GFP cells. Format: cell-based. The note with it: 5 μM, vs untreated cells. The method, then: (§1) Aβ-GFP or ∆K280 tauRD-DsRed SH-SY5Y cells were seeded into 6-well plates (5 × 10^5/well) and treated with retinoic acid, coumarin-chalcone derivatives, and doxycycline as previously described. On day 8, cells were collected and lysates were prepared with six freeze/thaw cycles. The supernatant was collected by centrifugation, followed by measurement of the caspase 1 activity in 50 μg aliquots of cell extract using the ICE fluorometric assay kit (BioVision, Milpitas, CA, USA). Following incubation of the mixture at 37°C for 2 h, fluorescence was measured with excitation/emission wavelengths at 400/505 nm (FLx800 fluorescence microplate reader). In addition, the collected cells were lysed by sonication. Acetylcholinesterase (AChE) activity in the supernatant was determined in 10 μg aliquots of cell extracts using the AChE activity assay kit (Sigma-Aldrich) according to the manufacture's protocol. Finally, the absorbance at 412 nm was measured using a Multiskan GO spectrophotometer (Thermo Fisher Scientific).

In experiment [4] the test system is Aβ-GFP SH-SY5Y cells. Description: Real-time PCR of Aβ-GFP RNA. The note with it: 5 μM. Format: cell-based, Human. The method, then: To measure the Aβ-GFP/tauRD-DsRed RNA expression on day 8, total RNA was extracted from collected cells and reverse-transcribed to cDNA (SuperScript III reverse transcriptase; Invitrogen, Waltham, MA, USA). Real-time quantitative PCR was performed using 100 ng of cDNA and the gene-specific TaqMan fluorogenic probe PN4331348 (EGFP) or customized Assays-by-Design probe for DsRed and 4326321E (HPRT1) (StepOnePlus Real-time PCR system, Applied Biosystems, Foster City, CA, USA). The RNA expression level was calculated using the formula 2^ΔCt, ΔCT = CT (control) − CT (target), in which CT indicates the cycle threshold.

Experiment [5] deals with Aβ-GFP SH-SY5Y cells. Description: High content analysis of neurite outgrowth in Aβ-GFP cells. The note with it: 5 μM. The experiment is classed as cell-based, Human. The method, then:
On day 1, Aβ-GFP or ∆K280 tauRD-DsRed SH-SY5Y cells were plated into 24-well plates (6 × 10^4/well) followed by addition of retinoic acid. On day 2, cells were treated with coumarin-chalcone derivatives (5 or 10 μM) and with doxycycline (5 or 2 μg/ml) to induce the expression of Aβ-GFP or ∆K280 tauRD-DsRed. On day 8, 4% paraformaldehyde, 0.1% Triton X-100, and 3% BSA were used to fix, permeabilize, and block cells, respectively. Subsequently, the cells were stained with TUBB3 (neuronal class III β-tubulin) primary antibody (1 : 1000; Covance, Princeton, NJ, USA) at 4°C overnight. Goat anti-rabbit Alexa Fluor 555 secondary antibody (1 : 1000; Thermo Fisher Scientific) was then added, followed by a 3 h incubation at room temperature. Following staining nuclei with 4′,-6-diamidino-2-phenylindole (DAPI) (0.1 μg/ml; Sigma-Aldrich), the neurons were imaged by using the HCA system and analysed by using the Neurite Outgrowth Application Module (MetaXpress; Molecular Devices).
(§2) To monitor the cAMP-mediated signal transduction pathway, CRE-GFP 293 cells in 6-well plates (1 × 10^6/well) were pretreated with kinase inhibitor H-89 (LC Laboratories, Woburn, MA, USA), KN-62 (Cayman Chemical, Ann Arbor, MI, USA), U0126 (LC Laboratories), or wortmannin (LC Laboratories) (10 μM) for 4 h before forskolin or LM-021 (10 μM) addition for 5 h. GFP fluorescence/protein and total/phosphorylated PKA, CaMKII, ERK, PI3K, and CREB levels were examined. In addition, Aβ-GFP or ∆K280 tauRD-DsRed SH-SY5Y cells were treated with retinoic acid (10 μM) on day 1, followed by the addition of LM-021 (5 or 10 μM) and doxycycline (5 or 2 μg/ml) on day 2, as described. Kinase inhibitors (10 μM) were added on day 6. On day 8, the cells were collected for protein expression analysis of BDNF, BCL2 (BCL2 apoptosis regulator), and BAX (BCL2 associated X, apoptosis regulator), and total/phosphorylated PKA, CaMKII, ERK, PI3K, and CREB. Also, cells were stained with DAPI and assessed for neurite outgrowth as described above.

For experiment [6], the system named is caspase 1. The experiment can be described thus: Caspase 1 activity in Aβ-GFP cells. The experiment is classed as cell-based, Human. The note with it: 5 μM, vs untreated cells. The method, then: as §1
Experiment [7] concerns CRE-GFP 293 cells. Description: CRE-GFP 293 reporter cell assay (flow cytometry). The note with it: 10 μM, 5 h, in the presence of Ca2+ ionophore (2 μM). The experiment is classed as cell-based, Human.
From the text: Using the pCRE-MetLuc2-Reporter plasmid (Clontech, Mountain View, CA, USA) as a template, the DNA fragment containing the cAMP response element (CRE) motifs and TATA-like promoter (PTAL) flanked by MluI and AgeI restriction sites was amplified by PCR using sense ([…], MluI site underlined) and antisense ([…], AgeI site underlined) primers. The amplified CRE-PTAL promoter fragment was cloned into pGEM-T Easy (Promega, Madison, WI, USA) and sequenced. The CRE-PTAL-containing MluI/AgeI fragment and GFP-containing AgeI/NotI fragment (from pEGFP-N1; Clontech) were subcloned into MluI- and NotI-digested pcDNA5/FRT/TO (Novagen, Madison, WI, USA). The resulting construct with CRE-PTAL-driving GFP was used to establish 293 GFP reporter cells by targeting insertion into Flp-In-293 cells according to the supplier's instructions (Invitrogen). The cells were grown in a medium containing 5 μg/ml blasticidin and 100 μg/ml hygromycin.
On day 1, CRE-GFP 293 cells were seeded into 48-well plates (5 × 10^4/well). After 24 h, cells were treated with Ca^2+ ionophore (2 μM) (Sigma-Aldrich) for 0–24 h. Cell viability was measured using 3,(4,5-dimethylthiazol-2-yl)-2,5-diphenyltetrazolium bromide (MTT) assay (Sigma-Aldrich). The absorbance of the insoluble purple formazan dye was quantified at 570 nm on a μQuant microplate spectrophotometer (Bio-Tek). In addition, the cells were treated with the Ca^2+ ionophore A23187 (0.5–10 μM) (Sigma-Aldrich) for 5 h, followed by analysis of GFP fluorescence by flow cytometry (Becton–Dickinson, Franklin Lakes, NJ, USA) with excitation/emission wavelengths at 488/507 nm. To monitor CREB activation, cells were treated with forskolin or coumarin-chalcone derivatives (5–10 μM) in the presence or absence of Ca^2+ ionophore (2 μM) for 5 h, and GFP fluorescence was analysed.
as §2

A short description of experiment [8]: DPPH radical-scavenging assay. The note with it: compounds 10–160 μM, 100 μM DPPH, 30 min, n = 3. The method, then:
Stable free radical 1,1-diphenyl-2-picrylhydrazyl (DPPH) (Sigma-Aldrich) was applied to test the potential radical-scavenging activity of the coumarin-chalcone derivatives. In brief, the compounds (10–160 μM) were added to an ethanol solution containing 100 μM DPPH. The mixture was vortexed for 15 sec, left to stand for 30 min at room temperature, and scavenging capacity was measured at a wavelength of 517 nm using a Multiskan GO microplate spectrophotometer (Thermo Fisher Scientific, Waltham, MA, USA).

In the case of `COc1cc(/C=C/C(=O)CC(=O)/C=C/c2ccc(O)c(OC)c2)ccc1O` [Curcumin, reference compound], the “Concentration effectively decreasing ROS levels caused by Aβ overexpression” value in experiment [1] was in the range of 2.5 to 5 µM. Also, the EC50 in experiment [2] (Homo sapiens, SH-SY5Y, read-out: EC50 in Aβ aggregation inhibition (GFP fluorescence)) was 6.1 µM. Besides, the “Concentration significantly augmenting green fluorescence intensity (Aβ-GFP)” value in experiment [2] (tested 1.2–5 μM, day 8) lay in the range of 2.5 to 5 µM. Also, the AChE activity result in experiment [3] is “reduced”. Also, the “Aβ-GFP RNA levels” value in experiment [4] was “did not significantly modify”. Moreover, the “Neurite length, processes, and branches” value in experiment [5] is given as “successfully ameliorated”. Also, the “Caspase 1 activity” value in experiment [6] was “reduced”.

As for `C=C[C@@]1(C)CC(=O)[C@]2(O)[C@@]3(C)[C@@H](O)CCC(C)(C)[C@@H]3[C@H](O)[C@H](OC(C)=O)[C@@]2(C)O1` [Forskolin, forskolin], the “CRE-motif-driven GFP expression” value in experiment [7] is given as “significantly increased”; in experiment [7] (listed as forskolin), “significantly activated”.

As for `O=c1c(O)c(-c2ccc(O)cc2)oc2cc(O)cc(O)c12` [Kaempferol, kaempferol, reference compound], in experiment [8], the EC50 is 28 µM.

These data come from paper PMC8605905 (Oxidative Medicine and Cellular Longevity, 2021).
